Results from patent US8895761B2, “4-phenylpyrane-3,5-diones, 4-phenylthiopyrane-3,5-diones and 2-phenylcyclohexane-1,3,5-triones as herbicides” (Syngenta Limited, priority 2007, dated 2014).

Key:
Type in all cases: in vivo
[1] = test system: Setaria faberi (SETFA); experiment: Pre-emergence herbicidal glasshouse test, Setaria faberi; conditions: rate 250 g/ha, evaluated after 13 days, scale 100 = total damage to plant, 0 = no damage; for pest or weed control at 250 g/ha: Setaria faberi, 312 h
Experimental: (§1) Seeds of a variety of test species were sown in standard soil in pots. After cultivation for one day (pre-emergence) or after 8 days cultivation (post-emergence) under controlled conditions in a glasshouse (at 24/16° C., day/night; 14 hours light; 65% humidity), the plants were sprayed with an aqueous spray solution derived from the formulation of the technical active ingredient in acetone/water (50:50) solution containing 0.5% Tween 20 (polyoxyethelyene sorbitan monolaurate, CAS RN 9005-64-5). The test plants were then grown in a glasshouse under controlled conditions in a glasshouse (at 24/16° C., day/night; 14 hours light; 65% humidity) and watered twice daily. After 13 days for pre and post-emergence, the test was evaluated ([…] to plant; 0=no damage to plant).
(§2) Setaria faberi (SETFA), Lolium perenne (LOLPE), Alopecurus myosuroides (ALOMY), Echinochloa crus-galli (ECHCG) and Avena fatua (AVEFA).

[2] = test system: Alopecurus myosuroides (ALOMY); experiment: Pre-emergence herbicidal glasshouse test, Alopecurus myosuroides; conditions: rate 250 g/ha, evaluated after 13 days, scale 100 = total damage to plant, 0 = no damage; for pest or weed control at 250 g/ha: Alopecurus myosuroides, 312 h
Procedure, shortened: (§3)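 Plant damage is rated 13 days after treatment, from 0 (none) to total kill. Application is to soil one day post-sowing for pre-emergence, or to 8-day-old plants for post-emergence, using an aqueous spray of compound formulated in 50:50 acetone/water containing 0.5% Tween 20.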

[3] = test system: Echinochloa crus-galli (ECHCG); experiment: Pre-emergence herbicidal glasshouse test, Echinochloa crus-galli; conditions: rate 250 g/ha, evaluated after 13 days, scale 100 = total damage to plant, 0 = no damage; for pest or weed control at 250 g/ha: Echinochloa crus-galli, 312 h
Procedure, shortened: as §3

[4] = test system: Avena fatua (AVEFA); experiment: Pre-emergence herbicidal glasshouse test, Avena fatua; conditions: rate 250 g/ha, evaluated after 13 days, scale 100 = total damage to plant, 0 = no damage; for pest or weed control at 250 g/ha: Avena fatua, 312 h
Procedure, shortened: as §3

[5] = test system: Setaria faberi (SETFA); experiment: Post-emergence herbicidal glasshouse test, Setaria faberi; conditions: rate 250 g/ha, evaluated after 13 days, scale 100 = total damage to plant, 0 = no damage; for pest or weed control at 250 g/ha: Setaria faberi, 312 h
Experimental: as §1, §2

[6] = test system: Alopecurus myosuroides (ALOMY); experiment: Post-emergence herbicidal glasshouse test, Alopecurus myosuroides; conditions: rate 250 g/ha, evaluated after 13 days, scale 100 = total damage to plant, 0 = no damage; for pest or weed control at 250 g/ha: Alopecurus myosuroides, 312 h
Procedure, shortened: as §3

[7] = test system: Echinochloa crus-galli (ECHCG); experiment: Post-emergence herbicidal glasshouse test, Echinochloa crus-galli; conditions: rate 250 g/ha, evaluated after 13 days, scale 100 = total damage to plant, 0 = no damage; for pest or weed control at 250 g/ha: Echinochloa crus-galli, 312 h
Procedure, shortened: as §3

[8] = test system: Avena fatua (AVEFA); experiment: Post-emergence herbicidal glasshouse test, Avena fatua; conditions: rate 250 g/ha, evaluated after 13 days, scale 100 = total damage to plant, 0 = no damage; for pest or weed control at 250 g/ha: Avena fatua, 312 h
Procedure, shortened: as §3

| SMILES | damage to plant SETFA, pre-emergence activity [1] | damage to plant ALOMY, pre-emergence activity [2] | damage to plant ECHCG, pre-emergence activity [3] | damage to plant AVEFA, pre-emergence activity [4] | damage to plant SETFA, post-emergence activity [5] | damage to plant ALOMY, post-emergence activity [6] | damage to plant ECHCG, post-emergence activity [7] | damage to plant AVEFA, post-emergence activity [8] | pest or weed control at 250 g/ha [1] [%] | pest or weed control at 250 g/ha [2] [%] | pest or weed control at 250 g/ha [3] [%] | pest or weed control at 250 g/ha [4] [%] | pest or weed control at 250 g/ha [5] [%] | pest or weed control at 250 g/ha [6] [%] | pest or weed control at 250 g/ha [7] [%] | pest or weed control at 250 g/ha [8] [%] |
| --- | --- | --- | --- | --- | --- | --- | --- | --- | --- | --- | --- | --- | --- | --- | --- | --- |
| Cc1cc(-c2ccccc2)cc(C)c1C1=C(O)[C@@]2(C)C=C[C@H](O2)C1=O [Compound A-3] | 90 | 0 | 70 | 20 | 100 | 70 | 100 | 0 | – | – | – | – | – | – | – | – |
| CCc1cc(-c2ccc(Cl)cc2)ccc1C1=C(O)[C@@]2(C)C=C[C@H](O2)C1=O [Compound A-7] | – | – | – | – | – | – | – | – | 0 | 0 | 0 | 0 | 100 | 60 | 100 | 30 |
| CCc1cc(-c2cc(Cl)cc(Cl)c2)ccc1C1=C(O)[C@@]2(C)CC[C@H](O2)C1=O [Compound A-15] | – | – | – | – | – | – | – | – | 40 | 0 | 30 | 40 | 100 | 100 | 100 | 80 |
| CCc1cc(-c2ccc(Cl)cc2C)ccc1C1=C(O)[C@@]2(C)CC[C@H](O2)C1=O [Compound A-16] | – | – | – | – | – | – | – | – | 50 | 0 | 0 | 0 | 80 | 90 | 20 | 0 |
| CCc1cc(-c2ccc(Cl)c(Cl)c2)ccc1C1=C(O)[C@@]2(C)CC[C@H](O2)C1=O [Compound A-17] | – | – | – | – | – | – | – | – | 100 | 30 | 100 | 80 | 100 | 100 | 100 | 100 |
| CCc1cc(-c2ccc(F)cc2)ccc1C1=C(O)[C@@]2(C)CC[C@H](O2)C1=O [Compound A-18] | – | – | – | – | – | – | – | – | 100 | 90 | 100 | 70 | 100 | 100 | 100 | 90 |
| CCc1cc(-c2ccc(Cl)c(C)c2)ccc1C1=C(O)[C@@]2(C)CC[C@H](O2)C1=O [Compound A-19] | – | – | – | – | – | – | – | – | 0 | 0 | 80 | 30 | 80 | 90 | 90 | 60 |
| CCc1cc(-c2ccc(Cl)c(OC)c2)ccc1C1=C(O)[C@@]2(C)CC[C@H](O2)C1=O [Compound A-20] | – | – | – | – | – | – | – | – | 80 | 70 | 70 | 40 | 90 | 90 | 100 | 70 |
| CCc1cc(-c2ccc(Cl)c(C(F)(F)F)c2)ccc1C1=C(O)[C@@]2(C)CC[C@H](O2)C1=O [Compound A-22] | – | – | – | – | – | – | – | – | 50 | 0 | 40 | 50 | 100 | 100 | 90 | 70 |
| CCc1cc(-c2ccc(Cl)s2)ccc1C1=C(O)[C@@]2(C)CC[C@H](O2)C1=O [Compound A-23] | – | – | – | – | – | – | – | – | 60 | 60 | 50 | 40 | 80 | 90 | 100 | 30 |
| CCc1cc(-c2ccc(Cl)nc2)ccc1C1=C(O)[C@@]2(C)CC[C@H](O2)C1=O [Compound A-25] | – | – | – | – | – | – | – | – | 90 | 30 | 50 | 20 | 100 | 90 | 100 | 60 |
| CCOC[C@]12CC[C@H](O1)C(=O)C(c1ccc(-c3ccc(Cl)cc3)cc1CC)=C2O [Compound A-33] | – | – | – | – | – | – | – | – | 30 | 20 | 60 | 40 | 100 | 90 | 100 | 80 |
